From patent US10364256B2 (GlaxoSmithKline Intellectual Property Development Limited, priority 2015, dated 2019)
Where two headings read alike, the source gives them in different places.

Legend:
[1] = target: T1, full length Keap1 protein / full length NRF2 protein (Homo sapiens, UniProt Q14145); assay: NRF2-Keap1 TR-FRET Low Protein Assay; type: binding; conditions: 1.25 nM Keap1 FlagHis and 2.5 nM biotin-NRF2 added
T1 construct: full length NRF2 protein and full length Keap1 protein (Keap1 exists a dimer) are used; His
T1 sequence (Q14145 whole entry): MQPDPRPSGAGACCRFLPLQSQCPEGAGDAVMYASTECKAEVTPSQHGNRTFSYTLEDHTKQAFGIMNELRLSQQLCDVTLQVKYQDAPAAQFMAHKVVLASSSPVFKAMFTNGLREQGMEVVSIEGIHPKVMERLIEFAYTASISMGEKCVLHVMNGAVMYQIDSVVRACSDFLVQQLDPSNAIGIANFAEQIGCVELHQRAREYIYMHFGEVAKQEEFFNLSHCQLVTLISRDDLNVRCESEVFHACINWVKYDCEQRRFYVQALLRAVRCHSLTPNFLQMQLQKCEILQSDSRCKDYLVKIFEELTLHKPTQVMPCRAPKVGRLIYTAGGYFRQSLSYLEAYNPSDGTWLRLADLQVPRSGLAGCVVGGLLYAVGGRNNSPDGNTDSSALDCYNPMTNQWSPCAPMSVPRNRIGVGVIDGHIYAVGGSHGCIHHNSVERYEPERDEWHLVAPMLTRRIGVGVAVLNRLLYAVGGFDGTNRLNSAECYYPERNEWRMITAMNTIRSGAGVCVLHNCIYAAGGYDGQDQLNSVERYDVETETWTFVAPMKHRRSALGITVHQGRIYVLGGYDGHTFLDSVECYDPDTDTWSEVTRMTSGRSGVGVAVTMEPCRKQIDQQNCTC
In short: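 Flag-tagged full-length Keap1 was preincubated with compound (3-fold series) for 2.25 h at 37 °C in Tris pH 8.0/MgCl2/NaCl/BSA/DTT/CHAPS. Biotin-Avi-NRF2 (added at 2.5 nM) was then bound for 1.25 h at 4 °C. Eu-streptavidin/anti-Flag-APC TR-FRET (665/615 nm) was read after 1 h at RT, and pIC50 came from a four-parameter fit.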

[2] = tested on: NQO1 specific enzyme activity in BEAS-2B cells (marker for NRF2 activation); assay: BEAS-2B NQO1 MTT Assay; type: cell-based; conditions: Homo sapiens, compound incubated 48 hours, read-out: EC50 (NQO1 specific enzyme activity induction)
In short: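 NQO1 specific activity induction is derived from the rate of MTT reduction (ΔOD/min, 570 nm, 30 min kinetic read) in crude lysates of BEAS-2B cells exposed to compound for 48 h. A 3-parameter fit gives EC50, reported as pEC50; part of each lysate goes to Cell Titer Glo.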

Row | IC50 [1] | Structure (SMILES) | EC50 [2] | EC50 ([2]; BEAS-2B, 48 h)
1 | 10 to 100 nM | Cn1cc([C@@H]2C[C@H]2c2c(C(=O)O)cnn2-c2cccc(-c3cccc(OCC4CCCSC4)c3)c2)nn1 (mixture of isomers) [Example 144, 5-((1,2-trans)-2-(1-Methyl-1H-1,2,3-triazol-4-yl)cyclopropyl)-1-(3′-((tetrahydro-2H-thiopyran-3-yl)methoxy)-[1,1′-biphenyl]-3-yl)-1H-pyrazole-4-carboxylic Acid] | 10 to 100 nM | 
2 | 10 to 100 nM | Cn1cc([C@@H]2C[C@H]2c2c(C(=O)O)cnn2-c2cccc(-c3cccc(OCC4CCC(F)(F)CC4)c3)c2)nn1 (racemic) [Example 145, 1-(3′-((4,4-Difluorocyclohexyl)methoxy)-[1,1′-biphenyl]-3-yl)-5-((1,2-trans)-2-(1-methyl-1H-1,2,3-triazol-4-yl)cyclopropyl)-1H-pyrazole-4-carboxylic acid] | 100 to 1000 nM | 
3 | 10 to 100 nM | Cn1cc([C@@H]2C[C@H]2c2c(C(=O)O)cnn2-c2cccc(-c3cccc(OC[C@H]4CC[C@H](C(F)(F)F)CC4)c3)c2)nn1 (racemic) [Example 146, 5-((1,2-trans)-2-(1-Methyl-1H-1,2,3-triazol-4-yl)cyclopropyl)-1-(3′-(((1r,4R)-4-(trifluoromethyl)cyclohexyl)methoxy)-[1,1′-biphenyl]-3-yl)-1H-pyrazole-4-carboxylic acid] | 10 to 100 nM | 
4 | 10 to 100 nM | Cn1cc([C@@H]2C[C@H]2c2c(C(=O)O)cnn2-c2cccc(-c3cccc(OCC4CCCC(C(F)(F)F)C4)c3)c2)nn1 (mixture of isomers) [Example 147, 5-((1,2-trans)-2-(1-Methyl-1H-1,2,3-triazol-4-yl)cyclopropyl)-1-(3′-((3-(trifluoromethyl)cyclohexyl)methoxy)-[1,1′-biphenyl]-3-yl)-1H-pyrazole-4-carboxylic acid] | 10 to 100 nM | 
5 | < 10 nM | Cn1cc([C@@H]2C[C@H]2c2c(C(=O)O)cnn2-c2cccc(-c3cccc(OCC4CCCCC4C(F)(F)F)c3)c2)nn1 (mixture of isomers) [Example 148, 5-((1,2-trans)-2-(1-Methyl-1H-1,2,3-triazol-4-yl)cyclopropyl)-1-(3′-((2-(trifluoromethyl)cyclohexyl)methoxy)-[1,1′-biphenyl]-3-yl)-1H-pyrazole-4-carboxylic acid] | 10 to 100 nM | 
6 | 10 to 100 nM | Cn1cc([C@@H]2C[C@H]2c2c(C(=O)O)cnn2-c2cccc(-c3cccc(OCC4CCSCC4)c3)c2)nn1 (racemic) [Example 149, 5-((1,2-trans)-2-(1-Methyl-1H-1,2,3-triazol-4-yl)cyclopropyl)-1-(3′-((tetrahydro-2H-thiopyran-4-yl)methoxy)-[1,1′-biphenyl]-3-yl)-1H-pyrazole-4-carboxylic acid] | 100 to 1000 nM | 
7 | 10 to 100 nM | CCC1CCC(COc2cccc(-c3cccc(-n4ncc(C(=O)O)c4[C@@H]4C[C@H]4c4cn(C)nn4)c3)c2)CC1 (mixture of isomers) [Example 150, 1-(3′-((4-Ethylcyclohexyl)methoxy)-[1,1′-biphenyl]-3-yl)-5-((1,2-trans)-2-(1-methyl-1H-1,2,3-triazol-4-yl)cyclopropyl)-1H-pyrazole-4-carboxylic acid] | 10 to 100 nM | 
8 | 10 to 100 nM | Cn1cc([C@@H]2C[C@H]2c2c(C(=O)O)cnn2-c2cccc(-c3cccc(OCC4CCCCC4)c3F)c2)nn1 (racemic) [Example 152, 1-(3′-(Cyclohexylmethoxy)-2′-fluoro-[1,1′-biphenyl]-3-yl)-5-((1,2-trans)-2-(1-methyl-1H-1,2,3-triazol-4-yl)cyclopropyl)-1H-pyrazole-4-carboxylic Acid] | 10 to 100 nM | 
9 | 10 to 100 nM | Cn1cc([C@@H]2C[C@H]2c2c(C(=O)O)cnn2-c2cccc(-c3cccc(OC(C4CCCCC4)C(F)(F)F)c3)c2)nn1 (mixture of isomers) [Example 157, 1-(3′-(1-Cyclohexyl-2,2,2-trifluoroethoxy)-[1,1′-biphenyl]-3-yl)-5-((1,2-trans)-2-(1-methyl-1H-1,2,3-triazol-4-yl)cyclopropyl)-1H-pyrazole-4-carboxylic Acid] | 10 to 100 nM | 
10 | 10 to 100 nM | CO[C@H]1CC[C@H](COc2cccc(-c3cccc(-n4ncc(C(=O)O)c4[C@H]4C[C@@H]4c4cn(C)nn4)c3)c2)CC1 (racemic) [Example 176, 1-(3′-(((1R,4S)-4-Methoxycyclohexyl)methoxy)-[1,1′-biphenyl]-3-yl)-5-((1,2-trans)-2-(1-methyl-1H-1,2,3-triazol-4-yl)cyclopropyl)-1H-pyrazole-4-carboxylic acid] | 100 to 1000 nM | 
11 | 100 to 1000 nM | COC1CCCCC1COc1cccc(-c2cccc(-n3ncc(C(=O)O)c3[C@H]3C[C@@H]3c3cn(C)nn3)c2)c1 (mixture of isomers) [Example 177, 1-(3′-((2-Methoxycyclohexyl)methoxy)-[1,1′-biphenyl]-3-yl)-5-((1,2-trans)-2-(1-methyl-1H-1,2,3-triazol-4-yl)cyclopropyl)-1H-pyrazole-4-carboxylic acid] | 100 to 1000 nM | 
12 | 10 to 100 nM | COC1CCCC(COc2cccc(-c3cccc(-n4ncc(C(=O)O)c4[C@H]4C[C@@H]4c4cn(C)nn4)c3)c2)C1 (mixture of isomers) [Example 178, 1-(3′-((3-Methoxycyclohexyl)methoxy)-[1,1′-biphenyl]-3-yl)-5-((1,2-trans)-2-(1-methyl-1H-1,2,3-triazol-4-yl)cyclopropyl)-1H-pyrazole-4-carboxylic acid] | 100 to 1000 nM | 
13 | 10 to 100 nM | Cn1cc([C@H]2C[C@@H]2c2c(C(=O)O)cnn2-c2cccc(-c3cccc(OC[C@H]4CC[C@H](Cl)CC4)c3)c2)nn1 (racemic) [Example 185, 1-(3′-((4-Chlorocyclohexyl)methoxy)-[1,1′-biphenyl]-3-yl)-5-((1,2-trans)-2-(1-methyl-1H-1,2,3-triazol-4-yl)cyclopropyl)-1H-pyrazole-4-carboxylic Acid] | 10 to 100 nM | 
14 | 10 to 100 nM | Cn1cc([C@H]2C[C@@H]2c2c(C(=O)O)cnn2-c2cccc(-c3cccc(OCC4CCCC(Cl)C4)c3)c2)nn1 (mixture of isomers) [Example 187, 1-(3′-((3-chlorocyclohexyl)methoxy)-[1,1′-biphenyl]-3-yl)-5-((1,2-trans)-2-(1-methyl-1H-1,2,3-triazol-4-yl)cyclopropyl)-1H-pyrazole-4-carboxylic acid] | 10 to 100 nM | 
15 | 10 to 100 nM | CCn1cc([C@H]2C[C@@H]2c2c(C(=O)O)cnn2-c2cccc(-c3cccc(OC(C)C4CCCCC4)c3)c2)nn1 (mixture of isomers) [Example 192, 1-(3′-(1-cyclohexylethoxy)-[1,1′-biphenyl]-3-yl)-5-((1,2-trans)-2-(1-ethyl-1H-1,2,3-triazol-4-yl)cyclopropyl)-1H-pyrazole-4-carboxylic acid] | 1 to 10 nM | 
16 | < 10 nM | CCC[C@@H]1CCCCN1C(=O)c1cccc(-c2cccc(-n3ncc(C(=O)O)c3[C@H]3C[C@@H]3c3cn(CC)nn3)c2)c1 (racemic) [Example 201, 5-((1,2-trans)-2-(1-Ethyl-1H-1,2,3-triazol-4-yl)cyclopropyl)-1-(3′-((R)-2-propylpiperidine-1-carbonyl)-[1,1′-biphenyl]-3-yl)-1H-pyrazole-4-carboxylic acid] |  | 100 to 1000 nM
17 | 10 to 100 nM | CC(Oc1cccc(-c2cccc(-n3ncc(C(=O)O)c3[C@H]3C[C@@H]3c3cn(C)nn3)c2)c1)C1CCCCCC1 (mixture of isomers) [Example 230, 1-(3′-(1-Cycloheptylethoxy)-[1,1′-biphenyl]-3-yl)-5-((1,2-trans)-2-(1-methyl-1H-1,2,3-triazol-4-yl)cyclopropyl)-1H-pyrazole-4-carboxylic acid] | 1 to 10 nM | 
18 | 100 to 1000 nM | Cn1cc([C@H]2C[C@@H]2c2c(C(=O)O)cnn2-c2cccc(-c3cccc(OCc4ccc(-c5ccccc5)cc4)c3)c2)nn1 (racemic) [Example 237, 1-(3′-([1,1′-Biphenyl]-4-ylmethoxy)-[1,1′-biphenyl]-3-yl)-5-((1,2-trans)-2-(1-methyl-1H-1,2,3-triazol-4-yl)cyclopropyl)-1H-pyrazole-4-carboxylic Acid] | 100 to 1000 nM | 
19 | 100 to 1000 nM | Cn1cc([C@H]2C[C@@H]2c2c(C(=O)O)cnn2-c2cccc(-c3cccc(OCc4cccc(-c5ccccc5)c4)c3)c2)nn1 (racemic) [Example 238, 1-(3′-([1,1′-Biphenyl]-3-ylmethoxy)-[1,1′-biphenyl]-3-yl)-5-((1,2- trans)-2-(1-methyl-1H-1,2,3-triazol-4-yl)cyclopropyl)-1H-pyrazole-4-carboxylic acid] | 100 to 1000 nM | 
20 | 100 to 1000 nM | CC(Oc1cccc(-c2cccc(-n3ncc(C(=O)O)c3[C@H]3C[C@@H]3c3cn(C)nn3)c2)c1)c1cccc(-c2ccccc2)c1 (mixture of isomers) [Example 239, 1-(3′-(1-([1,1′-Biphenyl]-3-yl)ethoxy)-[1,1′-biphenyl]-3-yl)-5-((1,2-trans)-2-(1-methyl-1H-1,2,3-triazol-4-yl)cyclopropyl)-1H-pyrazole-4-carboxylic Acid] | 100 to 1000 nM | 
21 | 100 to 1000 nM | CC(Oc1cccc(-c2cccc(-n3ncc(C(=O)O)c3[C@H]3C[C@@H]3c3cn(C)nn3)c2)c1)c1ccc(-c2ccccc2)cc1 (mixture of isomers) [Example 240, 1-(3′-(1-([1,1′-Biphenyl]-4-yl)ethoxy)-[1,1′-biphenyl]-3-yl)-5-((1,2- trans)-2-(1-methyl-1H-1,2,3-triazol-4-yl)cyclopropyl)-1H-pyrazole-4-carboxylic acid] | 100 to 1000 nM | 
